Reference: paper PMC2424174, “Suppression of Tumor Growth and Angiogenesis by a Specific Antagonist of the Cell-Surface Expressed Nucleolin” (PLoS ONE, 2008)

Assays:
[1] = system: HUVECs; experiment: HB-19 entry in HUVECs, confocal microscopy; format: cell-based, human; settings: 5 µM HB-19/Btn, 1 hour, 37°C
Experimental: Figure 3 Specific binding and entry of HB-19 in endothelial cells. (A) HB-19/Btn forms a stable complex with nucleolin expressed on the surface of HUVECs. Cells were incubated (45 min, 20°C) with 0, 1, 2, 4, 8 and 12 µM of HB-19/Btn before preparation of surface/cytoplasmic and nuclear extracts and recovery of surface nucleolin from the surface/cytoplasmic extracts as in Figure 2A. Material extracted from 2×10^7 and 2×10^6 cells was analyzed in panels Surface and Surface/Cytoplasm or Nucleus, respectively. Immunoblotting was with the anti-nucleolin mAb D3. (B) The specific binding of HB-19/Btn to HUVECs. The binding of 1 µM HB-19/Btn was studied at 4 °C by FACScan analysis. To show the specificity of binding, the reaction was carried out in the absence or presence of 50 µM HB-19, F3, or 9Arg peptides. The ordinate gives the relative cell number, whereas the abscissa gives the relative fluorescence intensity. (C) HB-19 entry in HUVECs. Cells were incubated with 5 µM of HB-19/Btn (1 hour, 37°C) before fixation in PFA (for surface binding) or PFA-Triton (for entry), respectively. Cells were then successively incubated with rabbit anti-biotin antibodies and goat Texas Red-conjugated anti-rabbit IgG, and processed for confocal microscopy. The scans of cells toward the middle cell layer are presented (with the DAPI stained nuclei). […]

[2] = system: cells (surface nucleolin); experiment: Internalization of nucleolin ligands (quoted); format: cell-based; settings: HB-19, 20°C; compared with GROs
[3] = system: MDA-MB-435 tumor-cell xenografts; experiment: MDA-MB-435 xenograft in nude mice; format: in vivo, human; settings: HB-19 5 mg/kg, intraperitoneal, 3 times/week, 8 weeks, n = 10
Experimental: Figure 8 HB-19 inhibits tumor growth in the nude mice. (A) HB-19 inhibits the growth of MDA-MB-231 tumor-cell xenografts. Cells (2×10^6) were injected subcutaneously into the right flank of female nude mice. Two weeks later, mice with a palpable tumor of approximately 40 mm^3 in volume were randomly separated into three groups (n = 5) and were given peritumoral injections 3 times/week of 0.1 ml PBS alone (Control), HB-19 (5 mg/kg), or Tamoxifen (Tmx) 10 mg/kg) for 6 weeks. (B) HB-19 inhibits the growth of MDA-MB-435 tumor-cell xenografts. Cells (1×10^6) were injected in the mammary fat pad of female nude mice. Two weeks later, mice with a palpable tumor were randomly separated into three groups (n = 10) and were given intraperitoneal injections 3 times/week of 0.1 ml PBS alone (Control), HB-19 (5 mg/kg), or 5-fluouracil (5-FU, 40 mg/kg) for 8 weeks. At the end of each experiment (in A and B), mice were sacrificed and the tumors were excised and weighed. The results are presented as the mean weight ±standard deviation (±S.D.) obtained from the number of mice in each group. (C, D) Inhibition of tumor development in mice treated by intraperitoneal (i.p.) and subcutaneous (s.c.) administration of HB-19. MDA-MB-231 tumor bearing mice in three groups (n = 10) were treated with HB-19 (10 mg/kg) by i.p. or s.c. injections, 3 times/week for 28 days. […]

[4] = system: athymic nude mice; experiment: Toxicity observations in treated nude mice; settings: HB-19, 3 times per week; data not shown
[5] = system: PC3 cells; experiment: Colony formation in soft agar, PC3; format: cell-based, human; settings: 5 µM HB-19, PC3
Experimental: Figure 4 HB-19 inhibits colony formation in soft agar by tumor cell lines. (A) MDA-MB-231 cells in culture medium were seeded in triplicate in the absence (histogram C) or presence of 0.1, 0.5 and 1 of µM HB-19, or 0.1 µM of the anti-nucleolin mAb MS-3 or control IgG, or 10 µM bisphosphonate (BisP). (B) Various tumor cell lines (as indicated) in culture medium were seeded in triplicate in the absence (histogram Control) or presence of 5 µM HB-19. After 10–21 days, colonies with diameters greater than 50 µm were scored as positive. Statistical significance: *0.01<p<[…], **p<0.01, ***p<0.001.
Carcinoma cells (2×10^4) were mixed in 0.35% top agar, diluted in complete medium (DMEM containing 10% FBS) in the absence or presence of HB-19, and plated onto 0.8% bottom agar into 12-well plates. Cells were treated twice a week during 10 to 21 days. Colonies with diameters greater than 50 µm were scored as positive using a phase contrast microscope equipped with a measuring grid at magnification 100× [45]. The number of colonies was determined by analyzing 5 fields/well from 3 wells and the test was repeated at least twice.

## pseudo-tripeptide Lysψ(CH2N)-Pro-Arg coupled to a template (H2NLys-Lys-Lys-Gly-Pro-Lys-Glu-Lys-AhxCONH2) [HB-19, pseudopeptide presenting pentavalently the pseudo-tripeptide Lysψ(CH2N)-Pro-Arg coupled to a template]
[1]
  internalization and subcellular localization: internalized and is concentrated in the cytoplasm without translocation into the nucleus
[2]
  localization at 20°C: remains aggregated at the plasma membrane
[3]
  inhibition of tumor growth: 57%
[4]
  evidence of toxicity: nor induced any evidence of toxicity such as diarrhea, infection, weakness, or lethargy
[5]
  colony formation: reduced markedly
